# Test results from patent publication US9889099B2, “Method and composition for enhancing milk production” (LAND O'LAKES, INC., priority 1999, dated 2018).
# Marks after values point to notes of the source that are not given here.
# Columns and labels:
# [1] = Passage of orally fed sorbitol through the rumen into the abomasum; type: in vivo, ruminant; settings: within about six to about eight hours after entering the rumen; based on total amount orally fed
# [2] = tested on: lactating cows; assay: Example 2: 3x3 Latin square feeding of lactating cows, control ration plus about 50 or 100 g sorbitol per day; type: in vivo, Holstein cows; settings: for Milk Protein / Lactose / Total Solids / Dry Matter Intake / Milk Production: last 14 of 28 days
# Text: In this example, fifteen Holstein cows (nine multiparous and six primiparous) averaging about sixty-five days in milk each, and thus in early lactation, were arranged in a 3×3 Latin square design, also known as the switch back design, that was replicated five times. Each cow was randomly allotted to the control ration treatment, to the first test ration treatment, or to the second test ration treatment. In the 3×3 Latin square design, each cow is cycled through each treatment, namely, the control ration treatment, the first test ration treatment, and the second test ration treatment. This permits each cow to act as a control for standardizing the testing differences observed between each treatment for each cow. Sufficient time between feeding treatments (between the control ration treatment, the first ration test treatment, and the second test ration treatment) was allowed to permit normalization of each cow before being switched to a different treatment. The cows were blocked by parity milk production, based upon the level of milk production by individual cows, after being in milk for forty-five days. After being blocked by parity milk production, the cows were randomly allotted to the control ration feeding, the first test ration feeding, or the second test ration feeding. The components of the control ration used in this example are shown in Table 5: The control ration was placed in the feeding troughs of the cattle once daily in the morning. When the first test ration was to be provided to the test cattle, sorbitol was top dressed and lightly mixed into the control ration in the feeding trough of each cow being supplied with the first test ration dosage of about 50 grams of sorbitol per cow per day, about one hour after the control ration was placed in the feeding trough. When the second test ration was to be provided to the test cattle, sorbitol was top dressed and lightly mixed into the control ration in the feeding trough of each cow being supplied with the second test ration dosage of about 100 grams of sorbitol per cow per day, about one hour after the control ration was placed in the feeding trough. Then, the control ration, the first test ration, and the second test ration were lightly mixed in front of the cows six times per day to encourage additional feed ingestion by the cattle. Leftover rations from the previous days feeding were collected and weighed from each feeding trough prior to feeding the test cattle the next day. The cows received a sufficient amount of the control ration to ensure that at least about ten weight percent, based upon the amount of control ration provided at the beginning of each day, remained per day for each test cow. The amount of sorbitol that was top dressed in the control ration to form the first test ration was adjusted upward to account for the excess of control ration provided to ensure that the cows ingested the first test ration dosage of about 50 grams of sorbitol per cow per day. Likewise, the amount of sorbitol that was top dressed in the control ration to form the second test ration was adjusted upward to account for the excess of control ration provided to ensure that the cows ingested the second test ration dosage of about 100 grams of sorbitol per cow per day. Feed refusals were measured daily, and water was supplied ad libitum. Each test cow received routine care and management consistent with appropriate recommendations in the Guide for the Care and Use of Agricultural Animals in Agricultural Research and Teaching (1st edition, March 1988). Each cow was milked three times daily and the weight of produced milk was recorded at each milking. The milk was sampled once per day (⅓ of the sample volume from each milking) and was analyzed for protein, fat, lactose, and total solids, in accordance with the property determination and characterization techniques presented above. […]
smiles,measurement,setting,value
OC[C@@H](O)[C@@H](O)[C@H](O)[C@@H](O)CO [sorbitol],share of orally fed sugar alcohol passing through the rumen into the abomasum,[1],at least 50 weight percent
same,Milk Protein,"[2]; about 50 g sorbitol/day/cow, Block 1, control 2.23, P >0.10",2.22 pounds/day/cow
same,Lactose,"[2]; about 50 g sorbitol/day/cow, Block 1, control 3.99, P >0.10",4.10 pounds/day/cow
same,Total Solids,"[2]; about 50 g sorbitol/day/cow, Block 1, control 9.51, P >0.10",9.77 pounds/day/cow
same,Dry Matter Intake,"[2]; about 50 g sorbitol/day/cow, Block 1, control 45.0, P >0.10",44.2 pounds/day/cow
same,Milk Protein,"[2]; about 50 g sorbitol/day/cow, Block 2, control 2.13, P >0.10",2.18 pounds/day/cow
same,Lactose,"[2]; about 50 g sorbitol/day/cow, Block 2, control 3.72, P 0.07",3.89^b pounds/day/cow
same,Total Solids,"[2]; about 50 g sorbitol/day/cow, Block 2, control 8.95, P >0.10",9.48 pounds/day/cow
same,Dry Matter Intake,"[2]; about 50 g sorbitol/day/cow, Block 2, control 42.9, P 0.04",45.3^b pounds/day/cow
same,Milk Production,"[2]; about 50 g sorbitol/day/cow, Block 2, control 75.3, P 0.10",78.0^b pounds/day/cow
same,Milk Protein,"[2]; about 50 g sorbitol/day/cow, Block 3, control 2.62, P >0.10",2.89 pounds/day/cow
same,Lactose,"[2]; about 50 g sorbitol/day/cow, Block 3, control 4.32, P >0.10",4.84 pounds/day/cow
same,Total Solids,"[2]; about 50 g sorbitol/day/cow, Block 3, control 10.70, P >0.10",11.53 pounds/day/cow
same,Dry Matter Intake,"[2]; about 50 g sorbitol/day/cow, Block 3, control 54.4, P 0.10",60.7^b pounds/day/cow
same,Milk Production,"[2]; about 50 g sorbitol/day/cow, Block 3, control 89.0, P 0.28",98.8 pounds/day/cow
same,Milk Protein,"[2]; about 50 g sorbitol/day/cow, Block 4, control 2.83, P 0.08",3.18^b pounds/day/cow
same,Lactose,"[2]; about 50 g sorbitol/day/cow, Block 4, control 4.56, P 0.06",4.88^b pounds/day/cow
same,Total Solids,"[2]; about 50 g sorbitol/day/cow, Block 4, control 11.46, P 0.09",12.35^b pounds/day/cow
same,Dry Matter Intake,"[2]; about 50 g sorbitol/day/cow, Block 4, control 61.0, P >0.10",62.6 pounds/day/cow
same,Milk Production,"[2]; about 50 g sorbitol/day/cow, Block 4, control 97.6, P 0.07",102.9^b pounds/day/cow
same,Milk Protein,"[2]; about 50 g sorbitol/day/cow, Block 5, control 3.35, P >0.10",3.39 pounds/day/cow
same,Lactose,"[2]; about 50 g sorbitol/day/cow, Block 5, control 5.70, P 0.05",5.86^b pounds/day/cow
same,Total Solids,"[2]; about 50 g sorbitol/day/cow, Block 5, control 13.46, P >0.10",13.83 pounds/day/cow
same,Dry Matter Intake,"[2]; about 50 g sorbitol/day/cow, Block 5, control 65.1, P >0.10",66.6 pounds/day/cow
same,Milk Production,"[2]; about 50 g sorbitol/day/cow, Block 5, control 119.1, P 0.10",122.4^b pounds/day/cow
same,Milk Protein,"[2]; about 50 g sorbitol/day/cow, all cows, control 2.63, P >0.10",2.77 pounds/day/cow
same,Lactose,"[2]; about 50 g sorbitol/day/cow, all cows, control 4.46, P 0.04",4.71^b pounds/day/cow
same,Total Solids,"[2]; about 50 g sorbitol/day/cow, all cows, control 10.82, P 0.07",11.39^b pounds/day/cow
same,Dry Matter Intake,"[2]; about 50 g sorbitol/day/cow, all cows, control 53.7, P 0.05",55.9^b pounds/day/cow
same,Milk Production,"[2]; about 50 g sorbitol/day/cow, all cows, control 92.9, P 0.05",97.5^b pounds/day/cow
same,Milk Protein,"[2]; about 50 g sorbitol/day/cow, multiparous cows only, control 2.93, P 0.08",3.15^b pounds/day/cow
same,Lactose,"[2]; about 50 g sorbitol/day/cow, multiparous cows only, control 4.86, P 0.07",5.19^b pounds/day/cow
same,Total Solids,"[2]; about 50 g sorbitol/day/cow, multiparous cows only, control 11.87, P >0.10",12.57 pounds/day/cow
same,Dry Matter Intake,"[2]; about 50 g sorbitol/day/cow, multiparous cows only, control 60.2, P 0.09",63.3^b pounds/day/cow
same,Milk Production,"[2]; about 50 g sorbitol/day/cow, multiparous cows only, control 101.9, P 0.07",108.0^b pounds/day/cow
same,Milk Protein,"[2]; about 50 g sorbitol/day/cow, primiparous cows only, control 2.18, P >0.10",2.20 pounds/day/cow
same,Lactose,"[2]; about 50 g sorbitol/day/cow, primiparous cows only, control 3.85, P >0.10",3.99 pounds/day/cow
same,Total Solids,"[2]; about 50 g sorbitol/day/cow, primiparous cows only, control 9.23, P >0.10",9.63 pounds/day/cow
same,Dry Matter Intake,"[2]; about 50 g sorbitol/day/cow, primiparous cows only, control 44.0, P >0.10",44.7 pounds/day/cow
same,Milk Production,"[2]; about 50 g sorbitol/day/cow, primiparous cows only, control 79.5, P >0.10",81.8 pounds/day/cow
same,Milk Protein,"[2]; about 100 g sorbitol/day/cow, Block 1, control 2.23, P >0.10",2.19 pounds/day/cow
same,Lactose,"[2]; about 100 g sorbitol/day/cow, Block 1, control 3.99, P >0.10",4.07 pounds/day/cow
same,Total Solids,"[2]; about 100 g sorbitol/day/cow, Block 1, control 9.51, P >0.10",9.94 pounds/day/cow
same,Dry Matter Intake,"[2]; about 100 g sorbitol/day/cow, Block 1, control 45.0, P >0.10",44.4 pounds/day/cow
same,Milk Production,"[2]; about 100 g sorbitol/day/cow, Block 1, control 83.7, P >0.10",85.2 pounds/day/cow
same,Milk Protein,"[2]; about 100 g sorbitol/day/cow, Block 2, control 2.13, P >0.10",2.12 pounds/day/cow
same,Lactose,"[2]; about 100 g sorbitol/day/cow, Block 2, control 3.72, P 0.07",3.82^ab pounds/day/cow
same,Total Solids,"[2]; about 100 g sorbitol/day/cow, Block 2, control 8.95, P >0.10",9.29 pounds/day/cow
same,Dry Matter Intake,"[2]; about 100 g sorbitol/day/cow, Block 2, control 42.9, P 0.04",42.6^ab pounds/day/cow
same,Milk Production,"[2]; about 100 g sorbitol/day/cow, Block 2, control 75.3, P 0.10",77.1^ab pounds/day/cow
same,Milk Protein,"[2]; about 100 g sorbitol/day/cow, Block 3, control 2.62, P >0.10",2.85 pounds/day/cow
same,Lactose,"[2]; about 100 g sorbitol/day/cow, Block 3, control 4.32, P >0.10",4.86 pounds/day/cow
same,Total Solids,"[2]; about 100 g sorbitol/day/cow, Block 3, control 10.70, P >0.10",11.62 pounds/day/cow
same,Dry Matter Intake,"[2]; about 100 g sorbitol/day/cow, Block 3, control 54.4, P 0.10",60.1^ab pounds/day/cow
same,Milk Production,"[2]; about 100 g sorbitol/day/cow, Block 3, control 89.0, P 0.28",99.0 pounds/day/cow
same,Milk Protein,"[2]; about 100 g sorbitol/day/cow, Block 4, control 2.83, P 0.08",3.01^ab pounds/day/cow
same,Lactose,"[2]; about 100 g sorbitol/day/cow, Block 4, control 4.56, P 0.06",4.57^ab pounds/day/cow
same,Total Solids,"[2]; about 100 g sorbitol/day/cow, Block 4, control 11.46, P 0.09",11.01^ab pounds/day/cow
same,Dry Matter Intake,"[2]; about 100 g sorbitol/day/cow, Block 4, control 61.0, P >0.10",61.2 pounds/day/cow
same,Milk Production,"[2]; about 100 g sorbitol/day/cow, Block 4, control 97.6, P 0.07",95.9^ab pounds/day/cow
same,Milk Protein,"[2]; about 100 g sorbitol/day/cow, Block 5, control 3.35, P >0.10",3.36 pounds/day/cow
same,Lactose,"[2]; about 100 g sorbitol/day/cow, Block 5, control 5.70, P 0.05",5.78^ab pounds/day/cow
same,Total Solids,"[2]; about 100 g sorbitol/day/cow, Block 5, control 13.46, P >0.10",13.78 pounds/day/cow
same,Dry Matter Intake,"[2]; about 100 g sorbitol/day/cow, Block 5, control 65.1, P >0.10",65.8 pounds/day/cow
same,Milk Production,"[2]; about 100 g sorbitol/day/cow, Block 5, control 119.1, P 0.10",121.0^ab pounds/day/cow
same,Milk Protein,"[2]; about 100 g sorbitol/day/cow, all cows, control 2.63, P >0.10",2.71 pounds/day/cow
same,Lactose,"[2]; about 100 g sorbitol/day/cow, all cows, control 4.46, P 0.04",4.62^ab pounds/day/cow
same,Total Solids,"[2]; about 100 g sorbitol/day/cow, all cows, control 10.82, P 0.07",11.12^ab pounds/day/cow
same,Dry Matter Intake,"[2]; about 100 g sorbitol/day/cow, all cows, control 53.7, P 0.05",54.8^ab pounds/day/cow
same,Milk Production,"[2]; about 100 g sorbitol/day/cow, all cows, control 92.9, P 0.05",95.6^ab pounds/day/cow
same,Milk Protein,"[2]; about 100 g sorbitol/day/cow, multiparous cows only, control 2.93, P 0.08",3.07^ab pounds/day/cow
same,Lactose,"[2]; about 100 g sorbitol/day/cow, multiparous cows only, control 4.86, P 0.07",5.07^ab pounds/day/cow
same,Total Solids,"[2]; about 100 g sorbitol/day/cow, multiparous cows only, control 11.87, P >0.10",12.13 pounds/day/cow
same,Dry Matter Intake,"[2]; about 100 g sorbitol/day/cow, multiparous cows only, control 60.2, P 0.09",62.3^ab pounds/day/cow
same,Milk Production,"[2]; about 100 g sorbitol/day/cow, multiparous cows only, control 101.9, P 0.07",105.3^ab pounds/day/cow
same,Milk Protein,"[2]; about 100 g sorbitol/day/cow, primiparous cows only, control 2.18, P >0.10",2.16 pounds/day/cow
same,Lactose,"[2]; about 100 g sorbitol/day/cow, primiparous cows only, control 3.85, P >0.10",3.95 pounds/day/cow
same,Total Solids,"[2]; about 100 g sorbitol/day/cow, primiparous cows only, control 9.23, P >0.10",9.62 pounds/day/cow
same,Dry Matter Intake,"[2]; about 100 g sorbitol/day/cow, primiparous cows only, control 44.0, P >0.10",43.5 pounds/day/cow
same,Milk Production,"[2]; about 100 g sorbitol/day/cow, primiparous cows only, control 79.5, P >0.10",81.2 pounds/day/cow
same,improvement of milk production rate versus cows fed only the control ration,"[2]; first test ration, about 50 g sorbitol per day, all cows",4.6 pounds per day per cow
same,improvement of milk production rate versus cows fed only the control ration,"[2]; second test ration, about 100 g sorbitol per day, all cows",2.7 pounds per day per cow
